The text below walks through data of patent US7888464B2, “Hepatitis C virus inhibitors” (Bristol-Myers Squibb Company, priority 2006, dated 2011).

Assay [1] relates to HCV replicon (strain 1b) in HUH-7 cells. Description: HCV replicon FRET assay. It is filed as cell-based. The following applies: Hepatitis C virus. An excerpt: An HCV replicon whole cell system was established as described by Lohmann V, Korner F, Koch J, Herian U, Theilmann L, Bartenschlager R., Science 285(5424): 110-3 (1999). This system enabled us to evaluate the effects of our HCV Protease compounds on HCV RNA replication. Briefly, using the HCV strain 1b sequence described in the Lohmann paper (Assession number: AJ238799), an HCV cDNA was synthesized by Operon Technologies, Inc. (Alameda, Calif.), and the full-length replicon was then assembled in plasmid pGem9zf(+) (Promega, Madison, Wis.) using standard molecular biology techniques. The replicon consists of (i) the HCV 5′ UTR fused to the first 12 amino acids of the capsid protein, (ii) the neomycin phosphotransferase gene (neo), (iii) the IRES from encephalomyocarditis virus (EMCV), and (iv) HCV NS3 to NS5B genes and the HCV 3′ UTR. Plasmid DNAs were linearized with ScaI and RNA transcripts were synthesized in vitro using the T7 MegaScript transcription kit (Ambion, Austin, Tex.) according to manufacturer's directions. In vitro transcripts of the cDNA were transfected into the human hepatoma cell line, HUH-7. […] Resulting cell lines were characterized for positive and negative strand RNA production and protein production over time.
The HCV replicon FRET assay was developed to monitor the inhibitory effects of compounds described in the disclosure on HCV viral replication. HUH-7 cells, constitutively expressing the HCV replicon, were grown in Dulbecco's Modified Eagle Media (DMEM) (Gibco-BRL) containing 10% Fetal calf serum (FCS) (Sigma) and 1 mg/ml G418 (Gibco-BRL). Cells were seeded the night before (1.5×10^4 cells/well) in 96-well tissue-culture sterile plates. Compound and no compound controls were prepared in DMEM containing 4% FCS, 1:100 Penicillin/Streptomysin (Gibco-BRL), 1:100 L-glutamine and 5% DMSO in the dilution plate (0.5% DMSO final concentration in the assay). Compound/DMSO mixes were added to the cells and incubated for 4 days at 37° C. After 4 days, cells were first assessed for cytotoxicity using alamar Blue (Trek Diagnotstic Systems) for a CC50 reading. The toxicity of compound (CC50) was determined by adding 1/10th volume of alamar Blue to the media incubating the cells. After 4 h, the fluorescence signal from each well was read, with an excitation wavelength at 530 nm and an emission wavelength of 580 nm, using the Cytofluor Series 4000 (Perspective Biosystems). Plates were then rinsed thoroughly with Phosphate-Buffered Saline (PBS) (3 times 150 μl). The cells were lysed with 25 μl of a lysis assay reagent containing an HCV protease substrate (5× cell Luciferase cell culture lysis reagent (Promega #E153A) diluted to 1× with distilled water, NaCl added to 150 mM final, the FRET peptide substrate (as described for the enzyme assay above) diluted to 10 μM final from a 2 mM stock in 100% DMSO. The plate was then placed into the Cytofluor 4000 instrument which had been set to 340 nm excitation/490 nm emission, automatic mode for 21 cycles and the plate read in a kinetic mode. EC50 determinations were carried out as described for the IC50 determinations.

In assay [2] the target is T1, HCV NS3/4A protease complex, BMS strain (genotype 1a) (UniProt P27958, species not given/STRAIN_BMS).
T1 construct: "DNA encoding the recombinant HCV NS3/4A protease complex (amino acids 1027 to 1711) for these strains" (said of H77 and J4L6S, not expressly of BMS); given for the H77/J4L6S constructs only
T1 sequence (P27958 1027-1657, stated change not applied, one chain of several): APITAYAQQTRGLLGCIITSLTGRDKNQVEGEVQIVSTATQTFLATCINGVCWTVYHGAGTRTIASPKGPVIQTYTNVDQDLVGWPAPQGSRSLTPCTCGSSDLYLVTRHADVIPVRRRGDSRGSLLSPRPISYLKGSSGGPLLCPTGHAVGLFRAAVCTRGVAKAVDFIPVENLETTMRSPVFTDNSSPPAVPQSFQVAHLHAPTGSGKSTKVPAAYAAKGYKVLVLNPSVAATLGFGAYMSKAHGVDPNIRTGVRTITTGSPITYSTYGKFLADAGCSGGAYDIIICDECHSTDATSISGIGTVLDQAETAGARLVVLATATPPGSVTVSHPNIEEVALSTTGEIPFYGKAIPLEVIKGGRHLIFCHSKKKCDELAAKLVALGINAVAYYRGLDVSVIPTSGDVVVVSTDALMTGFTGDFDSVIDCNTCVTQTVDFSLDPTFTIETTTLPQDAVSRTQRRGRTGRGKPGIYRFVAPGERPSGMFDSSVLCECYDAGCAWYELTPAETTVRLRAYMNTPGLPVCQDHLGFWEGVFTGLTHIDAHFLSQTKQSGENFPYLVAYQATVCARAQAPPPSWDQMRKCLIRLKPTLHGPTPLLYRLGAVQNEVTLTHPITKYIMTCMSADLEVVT
The experiment in a line: FRET peptide assay to monitor HCV NS3/4A proteolytic activity (BMS strain). The following applies: NS3/4A BMS strain, read-out: HCV Protease (IC50). It is filed as biochemical. An excerpt: HCV NS3 protease complexes, derived from the BMS strain, H77 strain or J4L6S strain, were generated, as described below. These purified recombinant proteins were generated for use in a homogeneous assay (see below) to provide an indication of how effective compounds of the present disclosure would be in inhibiting HCV NS3 proteolytic activity.
Serum from an HCV-infected patient was obtained from Dr. T. Wright, San Francisco Hospital. An engineered full-length cDNA (compliment deoxyribonucleic acid) template of the HCV genome (BMS strain) was constructed from DNA fragments obtained by reverse transcription-PCR(RT-PCR) of serum RNA (ribonucleic acid) and using primers selected on the basis of homology between other genotype la strains. From the determination of the entire genome sequence, a genotype la was assigned to the HCV isolate according to the classification of Simmonds et al. (See P Simmonds, K A Rose, S Graham, S W Chan, F McOmish, B C Dow, E A Follett, P L Yap and H Marsden, J. Clin. Microbiol., 31(6), 1493-1503 (1993)). […] The infectious clones, H77 (1a genotype) and J4L6S (1b genotype) were obtained from R. Purcell (NIH) and the sequences are published in Genbank (AAB67036, see Yanagi, M., Purcell, R. H., Emerson, S. U. and Bukh, J. Proc. Natl. Acad. Sci. U.S.A. 94(16), 8738-8743 (1997); AF054247, see Yanagi, M., St Claire, M., Shapiro, M., Emerson, S. U., Purcell, R. H. and Bukh, J, Virology 244 (1), 161-172. (1998)).
The H77 and J4L6S strains were used for production of recombinant NS3/4A protease complexes. DNA encoding the recombinant HCV NS3/4A protease complex (amino acids 1027 to 1711) for these strains were manipulated as described by P. Gallinari et al. (see Gallinari P, Paolini C, Brennan D, Nardi C, Steinkuhler C, De Francesco R. Biochemistry. 38(17):5620-32, (1999)). Briefly, a three-lysine solubilizing tail was added at the 3′-end of the NS4A coding region. The cysteine in the P1 position of the NS4A-NS4B cleavage site (amino acid 1711) was changed to a glycine to avoid the proteolytic cleavage of the lysine tag. Furthermore, a cysteine to serine mutation was introduced by PCR at amino acid position 1454 to prevent the autolytic cleavage in the NS3 helicase domain. The variant DNA fragment was cloned in the pET21b bacterial expression vector (Novagen) and the NS3/4A complex was expressed in Escherichia. coli strain BL21 (DE3) (Invitrogen) following the protocol described by P. Gallinari et al. (see Gallinari P, Brennan D, Nardi C, Brunetti M, Tomei L, Steinkuhler C, De Francesco R., J. Virol. 72(8):6758-69 (1998)) with modifications. Briefly, the NS3/4A protease complex expression was induced with 0.5 millimolar (mM) Isopropyl β-D-1-thiogalactopyranoside (IPTG) for 22 hours (h) at 20° C. A typical fermentation (1 Liter (L)) yielded approximately 10 grams (g) of wet cell paste. The cells were resuspended in lysis buffer (10 mL/g) consisting of 25 mM N-(2-Hydroxyethyl)piperazine-N′-(2-Ethane Sulfonic acid) (HEPES), pH 7.5, 20% glycerol, 500 mM Sodium Chloride (NaCl), 0.5% Triton X-100, 1 microgram/milliliter (“μg/mL”) lysozyme, 5 mM Magnesium Chloride (MgCl2), 1 μg/ml DnaseI, 5 mM β-Mercaptoethanol (βME), Protease inhibitor-Ethylenediamine Tetraacetic acid (EDTA) free (Roche), homogenized and incubated for 20 minutes (min) at 4° C. The homogenate was sonicated and clarified by ultra-centrifugation at 235000 g for 1 hour (h) at 4° C. Imidazole was added to the supernatant to a final concentration of 15 mM and the pH adjusted to 8.0. The crude protein extract was loaded on a Nickel-Nitrilotriacetic acid (Ni-NTA) column pre-equilibrated with buffer B (25 mM HEPES, pH 8.0, 20% glycerol, 500 mM NaCl, 0.5% Triton X-100, 15 mM imidazole, 5 mM βME). The sample was loaded at a flow rate of 1 mL/min. The column was washed with 15 column volumes of buffer C (same as buffer B except with 0.2% Triton X-100). The protein was eluted with 5 column volumes of buffer D (same as buffer C except with 200 mM Imidazole). […]

Where [3] appears, read: Huh-7, read-out: HCV Pro Replicon (EC50).
Where [4] appears, read: activity range symbols of Table 2.

Where two headings read alike, the source gives them in different places.

`C=C[C@@H]1C[C@]1(NC(=O)[C@@H]1C[C@@](OC)(c2ccc(-c3ccccc3)cc2)CN1C(=O)[C@@H](NC(=O)OC12CC3CC(CC(C3)C1)C2)C(C)(C)C)C(=O)NS(=O)(=O)C1CC1` [Cmpd 204, {(S)-1-[(2S,4R)-4-Biphenyl-4-yl-2-((S)-(1R,2S)-1-cyclopropanesulfonylaminocarbonyl-2-vinyl-cyclopropylcarbamoyl)-4-methoxy-pyrrolidine-1-carbonyl]-2,2-dimethyl-propyl}-carbamic acid adamantan-1-yl ester]: in assay [1] (setting [3]), the EC50 (as a rule, the concentration at which the effect is half-maximal) is 1 to 50 nM. Further, the IC50 (in general, the concentration that inhibits the measured activity by half) in assay [2] (setting [4]) was in the range of 1 to 50 nM.
Regarding `C=C[C@@H]1C[C@]1(NC(=O)[C@@H]1C[C@@](OC)(c2ccc(-c3ccccc3)cc2)CN1C(=O)[C@@H](NC(=O)NC12CC3CC(CC(C3)C1)C2)C(C)(C)C)C(=O)NS(=O)(=O)C1CC1` [Cmpd 205, (2S,4R)-1-[(S)-2-(3-Adamantan-1-yl-ureido)-3,3-dimethyl-butyryl]-4-biphenyl-4-yl-4-methoxy-pyrrolidine-2-carboxylic acid ((1R,2S)-1-cyclopropanesulfonylaminocarbonyl-2-vinyl-cyclopropyl)-amide], the EC50 in assay [1] (setting [3]) was 1 to 50 nM. The concentration for half-maximal inhibition (IC50) in assay [2] (setting [4]) lay in the range of 1 to 50 nM.
Take `C=C[C@@H]1C[C@]1(NC(=O)[C@@H]1C[C@@](OC)(c2ccc(-c3ccccc3)cc2)CN1C(=O)[C@@H](NC(=O)NC(C)(C)C)C(C)(C)C)C(=O)NS(=O)(=O)C1CC1` [Cmpd 206, (2S,4R)-4-Biphenyl-4-yl-1-[(S)-2-(3-tert-butyl-ureido)-3,3-dimethyl-butyryl]-4-methoxy-pyrrolidine-2-carboxylic acid ((1R,2S)-1-cyclopropanesulfonylaminocarbonyl-2-vinyl-cyclopropyl)-amide]: in assay [1] (setting [3]), the EC50 was in the range of 1 to 50 nM. In addition, the IC50 in assay [2] (setting [4]) lay within 1 to 50 nM.
Take `C=C[C@@H]1C[C@]1(NC(=O)[C@@H]1C[C@@](OC)(c2ccc(-c3ccccc3)cc2)CN1C(=O)[C@@H](Nc1cccc(OC)c1)C(C)(C)C)C(=O)NS(=O)(=O)C1CC1` [Cmpd 207, (2S,4R)-4-Biphenyl-4-yl-4-methoxy-1-[(S)-2-(3-methoxy-phenylamino)-3,3-dimethyl-butyryl]-pyrrolidine-2-carboxylic acid ((1R,2S)-1-cyclopropanesulfonylaminocarbonyl-2-vinyl-cyclopropyl)-amide]: the EC50 in assay [1] (setting [3]) is 1 to 50 nM. Further, the IC50 in assay [2] (setting [4]) lay in the range of 1 to 50 nM.
With `C=C[C@@H]1C[C@]1(NC(=O)[C@@H]1C[C@@](OC)(c2ccc(-c3ccccc3)cc2)CN1C(=O)[C@H](Nc1cccc(OC)c1)C(C)(C)C)C(=O)NS(=O)(=O)C1CC1` [Cmpd 208, (2S,4R)-4-Biphenyl-4-yl-4-methoxy-1-[(R)-2-(3-methoxy-phenylamino)-3,3-dimethyl-butyryl]-pyrrolidine-2-carboxylic acid ((1R,2S)-1-cyclopropanesulfonylaminocarbonyl-2-vinyl-cyclopropyl)-amide], the EC50 in assay [1] (Huh-7, HCV replicon, numeric cells of Table 2, read-out: HCV Pro Replicon (EC50)) amounted to 1300 nM. The IC50 in assay [2] (numeric cells of Table 2) was 315 nM.
Turning to `C=C[C@@H]1C[C@]1(NC(=O)[C@@H]1C[C@@](OC)(c2ccc(-c3ccccc3)cc2)CN1C(=O)[C@@H](Nc1ccc(F)c(F)c1)C(C)(C)C)C(=O)NS(=O)(=O)C1CC1` [Cmpd 209, (2S,4R)-4-Biphenyl-4-yl-1-[(S)-2-(3,4-difluoro-phenylamino)-3,3-dimethyl-butyryl]-4-methoxy-pyrrolidine-2-carboxylic acid ((1R,2 S)-1-cyclopropanesulfonylaminocarbonyl-2-vinyl-cyclopropyl)-amide], the EC50 in assay [1] (setting [3]) was 1 to 50 nM. Moreover, the IC50 in assay [2] (setting [4]) lay in the range of 1 to 50 nM.
For `C=C[C@@H]1C[C@]1(NC(=O)[C@@H]1C[C@@](OC)(c2ccc(-c3ccccc3)cc2)CN1C(=O)[C@H](Nc1ccc(F)c(F)c1)C(C)(C)C)C(=O)NS(=O)(=O)C1CC1` [Cmpd 210, (2S,4R)-4-Biphenyl-4-yl-1-[(R)-2-(3,4-difluoro-phenylamino)-3,3-dimethyl-butyryl]-4-methoxy-pyrrolidine-2-carboxylic acid ((1R,2S)-1-cyclopropanesulfonylaminocarbonyl-2-vinyl-cyclopropyl)-amide], the EC50 in assay [1] (setting [3]) is > 500 nM. Also, the IC50 in assay [2] (setting [4]) was > 500 nM.
